Measured values: patent publication US11427567B2, “Imidazolyl pyrimidinylamine compounds as CDK2 inhibitors” (Incyte Corporation, priority 2019, dated 2022)

The molecules below were run against CDK2/Cyclin E1 (Homo sapiens (Human), UniProt P24941) (assay: CDK2/Cyclin E1 HTRF enzyme activity assay (Example A)). Conditions: 1 mM ATP.
Assay type: biochemical
Method: Assays were conducted in white 384-well polystyrene plates in a final reaction volume of 8 μL. […] HTRF signals were read after 1 hour at room temperature on a PHERAstar FS plate reader (BMG Labtech). Data was analyzed with IDBS XLFit and GraphPad Prism 5.0 software using a three or four parameter dose response curve to determine IC50 for each compound.
For `CS(=O)(=O)N1CCC(Nc2ncc(C(F)(F)F)c(-c3cn(-c4cccc(CN5CCC5)c4C(F)(F)F)cn3)n2)CC1` [Example 380, 4-(1-(3-(Azetidin-1-ylmethyl)-2-(trifluoromethyl)phenyl)-1H-imidazol-4-yl)-N-(1-(methylsulfonyl)piperidin-4-yl)-5-(trifluoromethyl)pyrimi-din-2-amine], the IC50 was ≤ 50 nM. `C[C@@]1(O)CCN(Cc2cccc(-n3cnc(-c4nc(NC5CCN(S(C)(=O)=O)CC5)ncc4C(F)(F)F)c3)c2C(F)(F)F)C1` [Example 381, (R)-3-Methyl-1-(3-(4-(2-((1-(methylsulfonyl)piperidin-4-yl)amino)-5-(trifluoromethyl)pyrimi-din-4-yl)-1H-imidazol-1-yl)-2-(trifluoromethyl)benzyl) pyrrolidin-3-ol] was tested, and the IC50 was ≤ 50 nM. In the case of `Cc1nc(CN2CCCCC2)ccc1-n1cnc(-c2nc(NC3CCN(S(C)(=O)=O)CC3)ncc2C(F)(F)F)c1` [Example 382, 4-(1-(2-Methyl-6-(piperidin-1-ylmethyl)pyridin-3-yl)-1H-imidazol-4-yl)-N-(1-(methylsulfonyl)piperidin-4-yl)-5-(trifluoromethyl)pyrimidin-2-amine], the IC50 is reported as ≤ 50 nM. With `Cn1cc(S(=O)(=O)N2CCC(Nc3ncc(C(F)(F)F)c(-c4ncn(C)c4Br)n3)CC2)cn1` [Example 383, 4-(5-Bromo-1-methyl-1H-imidazol-4-yl)-N-(1-((1-methyl-1H-pyrazol-4-yl)sulfonyl)piperidin-4-yl)-5-(trifluoromethyl)pyrimidin-2-amine] the IC50 was ≤ 50 nM. In the case of `Cc1nc(-c2nc(N[C@H]3CCN(S(C)(=O)=O)C[C@H]3F)ncc2C(F)(F)F)cn1-c1cccc(C#N)c1Cl` [Example 384, 2-Chloro-3-(4-(2-(((3R,4S)-3-fluoro-1-(methylsulfonyl)piperidin-4-yl)amino)-5-(trifluoromethyl)pyrimi-din-4-yl)-2-methyl-1H-imidazol-1-yl)benzonitrile], the IC50 is reported as ≤ 50 nM. For `CC(C)NCc1cc(F)c(-n2cnc(-c3nc(N[C@H]4CCN(S(C)(=O)=O)C[C@H]4F)ncc3C(F)(F)F)c2)c(F)c1` [Example 386, 4-(1-(2,6-Difluoro-4-((isopropylamino)methyl)phenyl)-1H-imidazol-4-yl)-N-((3R,4S)-3-fluoro-1-(methylsulfonyl)piperidin-4-yl)-5-(trifluoromethyl)pyrimidin-2-amine], the IC50 was ≤ 50 nM. For `Cc1nc(-c2nc(N[C@H]3CCN(S(C)(=O)=O)C[C@H]3F)ncc2C(F)(F)F)cn1-c1ccc(CN2CCN(C)CC2)cc1F` [Example 387, N-((3R,4S)-3-Fluoro-1-(methylsulfonyl)piperidin-4-yl)-4-(1-(2-fluoro-4-((4-methylpiperazin-1-yl)methyl)phenyl)-2-methyl-1H-imidazol-4-yl)-5-(trifluoromethyl)pyrimidin-2-amine], the IC50 was ≤ 50 nM. For `Cc1nc(-c2nc(N[C@H]3CCN(S(C)(=O)=O)C[C@H]3F)ncc2C(F)(F)F)cn1-c1ccc(CNC(C)C)cc1F` [Example 388, N-((3R,4S)-3-Fluoro-1-(methylsulfonyl)piperidin-4-yl)-4-(1-(2-fluoro-4-((isoporopylamino)methyl)phenyl)-2-methyl-1H-imidazol-4-yl)-5-(trifluoromethyl)pyrimidin-2-amine], the IC50 was ≤ 50 nM. `CCNCc1ccc(-n2cc(-c3nc(N[C@H]4CCN(S(C)(=O)=O)C[C@H]4F)ncc3C(F)(F)F)nc2C)c(F)c1` [Example 389, 4-(1-(4-((Ethylamino)methyl)-2-fluorophenyl)-2-methyl-1H-imidazol-4-yl)-N-((3R,4S)-3-fluoro-1-(methylsulfonyl)piperidin-4-yl)-5-(trifluoromethyl)pyrimidin-2-amine] was tested, and the IC50 was ≤ 50 nM. For `CCNCc1cc(F)c(-n2cnc(-c3nc(N[C@@H]4CCN(S(C)(=O)=O)C[C@H]4F)ncc3C(F)(F)F)c2)c(F)c1` [Example 390, 4-(1-(4-((Ethylamino)methyl)-2,6-difluorophenyl)-1H-imidazol-4-yl)-N-((3R,4R)-3-fluoro-1-(methylsulfonyl)piperidin-4-yl)-5-(trifluoromethyl)pyrimidin-2-amine], the IC50 was ≤ 50 nM. In the case of `CC(C)NCc1cc(F)c(-n2cnc(-c3nc(N[C@@H]4CCN(S(C)(=O)=O)C[C@H]4F)ncc3C(F)(F)F)c2)c(F)c1` [Example 391, 4-(1-(2,6-Difluoro-4-((isopropylamino)methyl)phenyl)-1H-imidazol-4-yl)-N-((3R,4R)-3-fluoro-1-(methylsulfonyl)piperidin-4-yl)-5-(trifluoromethyl)pyrimidin-2-amine], the IC50 is reported as ≤ 50 nM. `CCN1CCN(Cc2cc(F)c(-n3cnc(-c4nc(N[C@@H]5CCN(S(C)(=O)=O)C[C@H]5F)ncc4C(F)(F)F)c3)c(F)c2)CC1` [Example 392, 4-(1-(4-((4-Ethylpiperazin-1-yl)methyl)-2,6-difluorophenyl)-1H-imidazol-4-yl)-N-((3R,4R)-3-fluoro-1-(methyslulfonyl)piperidin-4-yl)-5-(trifluoromethyl)pyrimidin-2-amine] was tested, and the IC50 was ≤ 50 nM. `CCNCc1cc(F)c(-n2cnc(-c3nc(NC4CCN(S(C)(=O)=O)CC4)ncc3C(F)(F)F)c2)c(Cl)c1` [Example 393, 4-(1-(2-Chloro-4-((ethylamino)methyl)-6-fluorophenyl)-1H-imdazol-4-yl)-N-(1-(methylsulfonyl)piperidin-4-yl)-5-(trifluoromethyl)pyrimidin-2-amine] was tested, and the IC50 was ≤ 50 nM. In the case of `CC(C)NCc1cc(F)c(-n2cnc(-c3nc(NC4CCN(S(C)(=O)=O)CC4)ncc3C(F)(F)F)c2)c(Cl)c1` [Example 394, 4-(1-(2-Chloro-6-fluoro-4-((isopropylamino)methyl)phenyl)-1H-imidazol-4-yl)-N-(1-(methylsulfonyl)piperidin-4-yl)-5-(trifluoromethyl)pyrimidin-2-amine], the IC50 is reported as ≤ 50 nM. With `CS(=O)(=O)N1CCC(Nc2ncc(C(F)(F)F)c(-c3cn(-c4c(F)cc(CN5CCC5)cc4Cl)cn3)n2)CC1` [Example 395, 4-(1-(4-(Azetidin-1-ylmethyl)-2-chloro-6-fluorophenyl)-1H-imidazol-4-yl)-N-(1-(methyslulfonyl)piperidin-4-yl)-5-(trifluoromethyl)pyrimidin-2-amine] the IC50 was ≤ 50 nM. `CCN1CCN(Cc2cc(F)c(-n3cnc(-c4nc(NC5CCN(S(C)(=O)=O)CC5)ncc4C(F)(F)F)c3)c(Cl)c2)CC1` [Example 396, 4-(1-(2-Chloro-4-((4-ethylpiperazin-1-yl)methyll)-6-fluorophenyl)-1H-imidazol-4-yl)-N-(1-(methylsulfonyl)piperidin-4-yl)-5-(trifluoromethyl)pyrimidin-2-amine] was tested, and the IC50 was ≤ 50 nM. For `C[C@@]1(O)CCN(Cc2ccc(-n3cnc(-c4nc(N[C@@H]5CCN(S(C)(=O)=O)C[C@H]5F)ncc4C(F)(F)F)c3)c(Cl)c2)C1` [Example 397, (R)-1-(3-Chloro-4-(4-(2-(((3R,4R)-3-fluoro-1-(methylsulfonyl)piperidin-4-yl)amino)-5-(trifluoromethyl)pyrimidin-4-yl)-1H-imidazol-1-yl)benzyl)-3-methylpyrrolidin-3-ol], the IC50 was ≤ 50 nM. With `CCN1CCN(Cc2ccc(-n3cnc(-c4nc(N[C@@H]5CCN(S(C)(=O)=O)C[C@H]5F)ncc4C(F)(F)F)c3)c(Cl)c2)CC1` [Example 398, 4-(1-(2-Chloro-4-((4-ethylpiperazin-1-yl)methyl)phenyl)-1H-imidazol-4-yl)-N-((3R,4R)-3-fluoro-1-(methylsulfonyl)piperidin-4-yl)-5-(trifluoromethyl)pyrimidin-2-amine] the IC50 was ≤ 50 nM. In the case of `CS(=O)(=O)N1CC[C@@H](Nc2ncc(C(F)(F)F)c(-c3cn(-c4ccc(CN5CCC5)cc4Cl)cn3)n2)[C@H](F)C1` [Example 399, 4-(1-(4-(Azetidin-1-ylmethyl)-2-chlorophenyl)-1H-imidazol-4-yl)-N-((3R,4R)-3-fluoro-1-(methylsulfonyl)piperidin-4-yl)-5-(trifluoromethyl)pyrimidin-2-amine], the IC50 is reported as ≤ 50 nM. `CC(C)NCc1ccc(-n2cnc(-c3nc(N[C@@H]4CCN(S(C)(=O)=O)C[C@H]4F)ncc3C(F)(F)F)c2)c(Cl)c1` [Example 400, 4-(1-(2-Chloro-4-((isopropylamino)methyl)phenyl)-1H-imidazol-4-yl)-N-((3R,4R)-3-fluoro-1-(methylsulfonyl)piperidin-4-yl)-5-(trifluoromethyl)pyrimidin-2-amine] was tested, and the IC50 was ≤ 50 nM. `CCNCc1ccc(-n2cnc(-c3nc(N[C@@H]4CCN(S(C)(=O)=O)C[C@H]4F)ncc3C(F)(F)F)c2)c(Cl)c1` [Example 401] was tested, and the IC50 was ≤ 50 nM. For `C[C@@]1(O)CCN(Cc2cc(F)c(-n3cnc(-c4nc(N[C@@H]5CCN(S(C)(=O)=O)C[C@H]5F)ncc4C(F)(F)F)c3)c(Cl)c2)C1` [Example 402, (R)-1-(3-Chloro-5-fluoro-4-(4-(2-(((3R,4R)-3-fluoro-1-(methylsulfonyl)piperidin-4-yl)amino)-5-(trifluoromethyl)pyrimidin-4-yl)-1H-imidazol-1-yl)benzyl)-3-methylpyrrolidin-3-ol], the IC50 was ≤ 50 nM. `CCN1CCN(Cc2cc(F)c(-n3cnc(-c4nc(N[C@@H]5CCN(S(C)(=O)=O)C[C@H]5F)ncc4C(F)(F)F)c3)c(Cl)c2)CC1` [Example 403, 4-(1-(2-Chloro-4-((4-ethylpiperazin-1-yl)methyl)-6-fluorophenyl)-1H-imidazol-4-yl)-N-((3R,4R)-3-fluoro-1-(methylsulfonyl)piperidin-4-yl)-5-(trifluoromethyl)pyrimidin-2-amine] was tested, and the IC50 was ≤ 50 nM. `CS(=O)(=O)N1CC[C@@H](Nc2ncc(C(F)(F)F)c(-c3cn(-c4c(F)cc(CN5CCC5)cc4Cl)cn3)n2)[C@H](F)C1` [Example 404, 4-(1-(4-(Azetidin-1-ylmethyl)-2-chloro-6-fluorophenyl)-1H-imidazol-4-yl)-N-((3R,4R)-3-fluoro-1-(methylsulfonyl)piperidin-4-yl)-5-(trifluoromethyl)pyrimidin-2-amine] was tested, and the IC50 was ≤ 50 nM. For `CC(C)NCc1cc(F)c(-n2cnc(-c3nc(N[C@@H]4CCN(S(C)(=O)=O)C[C@H]4F)ncc3C(F)(F)F)c2)c(Cl)c1` [Example 405, 4-(1-(2-Chloro-6-fluoro-4-((isopropylamino)methyl)phenyl)-1H-imidazol-4-yl)-N-((3R,4R)-3-fluoro-1-(methylsulfonyl)piperidin-4-yl)-5-(trifluoromethyl)pyrimidin-2-amine], the IC50 was ≤ 50 nM.
